Results: PMC6901909, “Synergy Pattern of Short Cationic Antimicrobial Peptides Against Multidrug-Resistant Pseudomonas aeruginosa” (Frontiers in Microbiology, 2019)
≈ marks a conversion by molar mass, not a printed value. Like-named read-outs stand apart in the source and are kept apart here. Peptide text beside a SMILES is read from it.

What was measured:
MDR P. aeruginosa PA 910 = test: microbe, parasite or virus in culture; type: cell-based, Pseudomonas aeruginosa; conditions: for MIC: Pseudomonas aeruginosa; for MIC against PA910 in μM (peptides, Table 4): peptide alone
Method in brief: (§1)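 Inoculum 2–5 10^5 CFU/ml in Mueller-Hinton broth, compounds twofold serially diluted, polypropylene microtiter plates. Strains are MDR isolates from clinical and municipal waste water.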

MDR P. aeruginosa PA 915 = test: microbe, parasite or virus in culture; type: cell-based, Pseudomonas aeruginosa; conditions: Pseudomonas aeruginosa; conventional antibiotics; microdilution, Mueller-Hinton broth, 2–5 10^5 CFU/ml, 18 h at 37°C, read visually; at least three repeats (n = 3)
Method in brief: as §1

MDR P. aeruginosa PA 919 = test: microbe, parasite or virus in culture; type: cell-based, Pseudomonas aeruginosa; conditions: for MIC: Pseudomonas aeruginosa, conventional antibiotics, 2–5 10^5 CFU/ml, at least three repeats (n = 3)
Method in brief: as §1

MDR P. aeruginosa PA 923 = test: microbe, parasite or virus in culture; type: cell-based, Pseudomonas aeruginosa; conditions: Pseudomonas aeruginosa; conventional antibiotics; microdilution, Mueller-Hinton broth, 2–5 10^5 CFU/ml, 18 h at 37°C, read visually; at least three repeats (n = 3)
Method in brief: as §1

MDR P. aeruginosa PA 927 = test: microbe, parasite or virus in culture; type: cell-based, Pseudomonas aeruginosa; conditions: Pseudomonas aeruginosa; conventional antibiotics; microdilution, Mueller-Hinton broth, 2–5 10^5 CFU/ml, 18 h at 37°C, read visually; at least three repeats (n = 3)
Method in brief: as §1

MDR P. aeruginosa PA253 = test: microbe, parasite or virus in culture; type: cell-based, Pseudomonas aeruginosa; conditions: for MIC: Pseudomonas aeruginosa, conventional antibiotics, 2–5 10^5 CFU/ml, at least three repeats (n = 3)
Method in brief: as §1

P. aeruginosa PA01-wt = test: microbe, parasite or virus in culture; type: cell-based, Pseudomonas aeruginosa; conditions: for MIC: Pseudomonas aeruginosa, PA01WT, conventional antibiotics, 2–5 10^5 CFU/ml, at least three repeats (n = 3)
[1] = tested on: MDR isolate of P. aeruginosa (PA 910); conditions: checkerboard, MHb, for the Indopt versions 1/8 MHb, 2–5 × 10^5 CFU/ml, 37°C, 18 h, visual, determined once (n = 1); for FIC, combination with AMI: peptide + amikacin; for FIC, combination with CEF: peptide + cefepime; for FIC, combination with CET: peptide + ceftazidime; for FIC, combination with CIP: peptide + ciprofloxacin; for FIC, combination with ERY: peptide + erythromycin; for FIC, combination with GEN: peptide + gentamycin; for FIC, combination with IMI: peptide + imipenem; for FIC, combination with KAN: peptide + kanamycin; for FIC, combination with MER: peptide + meropenem; for FIC, combination with PIP: peptide + piperacillin; for FIC, combination with PMB: peptide + polymyxin B; for FIC, combination with TET: peptide + tetracycline; for FIC, combination with TOB: peptide + tobramycin
Experimental: The checkerboard assay was used to determine the fractional inhibitory concentrations (FICs), following the protocol described in Koneman’s Color Atlas and Textbook of Diagnostic Microbiology ([Winn et al., 2006]). Briefly, combinations of peptides and antibiotics were prepared in 96-well plates (polypropylene, Corning) in a twofold dilution series. After the addition of a log-phase bacterial inoculum of 2–5 × 10^5 CFU/ml, plates were incubated at 37°C for 18 h. The FICs were determined by visual inspection and the effects of the combinations were determined using the FICs. The FIC was computed by adding two partial FIC values, FICA—the MIC of drug A, tested in combination with drug B divided by the MIC of drug A, tested alone and FICB—the MIC of drug B, tested in combination with drug A divided by the MIC of drug B, tested alone [FIC = FICA + FICB = (MICAB/MICA) + (MICBA/MICB), where MICA and MICB are the MICs of drugs A and B alone, respectively, and MICAB and MICBA are the MIC concentrations of the drugs in combination]. Here we use the European Committee for Antimicrobial Susceptibility Testing (EUCAST) definition, which is very similar to the definition provided by [Odds, 2003], except Odds define additive effects when FIC values are between 0.5 and 1 ([European Committee for Antimicrobial Susceptibility Testing [EUCAST] of the European Society of Clinical Microbiology and Infectious Diseases [ESCMID], 2000]; [Odds, 2003]). The combination of peptide (drug A) and antibiotics (drug B) was defined as synergistic if the FIC was ≤ 0.5, indifferent if the FIC was > 0.5 but ≤ 4.0 and antagonistic if the FIC was > 4.0.

[2] = 18 h, antibiotic alone, as listed in the FIC table, read-out: MIC against PA910 in μM (antibiotics, head of Table 4)
[3] = conventional antibiotics, microdilution, Mueller-Hinton broth, 2–5 10^5 CFU/ml, 18 h at 37°C, read visually, at least three repeats (n = 3), read-out: MIC PA 910
[4] = microdilution, Mueller-Hinton broth, 18 h at 37°C, read visually
[5] = four classes defined from the MIC values, 1 strong to 4 weak
[6] = short AMPs, microdilution, Mueller-Hinton broth, 18 h at 37°C, read visually, triplicate (n = 3)

| Structure (SMILES) | MIC (MDR P. aeruginosa PA 910; [2]) [µM] | MIC (MDR P. aeruginosa PA 910; [3]) [µM] | MIC (MDR P. aeruginosa PA 915) [µM] | MIC (MDR P. aeruginosa PA 919; [4]) [µM] | MIC (MDR P. aeruginosa PA 923) [µM] | MIC (MDR P. aeruginosa PA 927) [µM] | MIC (MDR P. aeruginosa PA253; [4]) [µM] | MIC (P. aeruginosa PA01-wt; [4]) [µM] | MIC against PA910 in μM (peptides, Table 4) (MDR P. aeruginosa PA 910; as listed in the FIC table) [µM] | FIC, combination with AMI [1] | FIC, combination with CEF [1] | FIC, combination with CET [1] | FIC, combination with CIP [1] | FIC, combination with ERY [1] | FIC, combination with GEN [1] | FIC, combination with IMI [1] | FIC, combination with KAN [1] | FIC, combination with MER [1] | FIC, combination with PIP [1] | FIC, combination with PMB [1] | further results |
| --- | --- | --- | --- | --- | --- | --- | --- | --- | --- | --- | --- | --- | --- | --- | --- | --- | --- | --- | --- | --- | --- |
| NCC[C@H](O)C(=O)N[C@@H]1C[C@H](N)[C@@H](O[C@H]2O[C@H](CN)[C@@H](O)[C@H](O)[C@H]2O)[C@H](O)[C@H]1O[C@H]1O[C@H](CO)[C@@H](O)[C@H](N)[C@H]1O [Amikacin] | 2 to 4 | 2 to 4 (≈ 1.17 to 2.34 µg/mL) | 4 (≈ 2.34 µg/mL) | 32 (≈ 18.7 µg/mL) | 4 (≈ 2.34 µg/mL) | 4 (≈ 2.34 µg/mL) | 8 to 16 (≈ 4.68 to 9.37 µg/mL) | 1 (≈ 0.586 µg/mL) | – | – | – | – | – | – | – | – | – | – | – | – | – |
| CO/N=C(\C(=O)N[C@@H]1C(=O)N2C(C(=O)[O-])=C(C[N+]3(C)CCCC3)CS[C@H]12)c1csc(N)n1 [Cefepime] | 128 | 64 (≈ 30.8 µg/mL) | 32 (≈ 15.4 µg/mL) | 16 (≈ 7.69 µg/mL) | 64 (≈ 30.8 µg/mL) | 128 (≈ 61.5 µg/mL) | > 128 | 8 (≈ 3.84 µg/mL) | – | – | – | – | – | – | – | – | – | – | – | – | – |
| CC(C)(O/N=C(\C(=O)N[C@@H]1C(=O)N2C(C(=O)[O-])=C(C[n+]3ccccc3)CS[C@H]12)c1csc(N)n1)C(=O)O [Ceftazidime] | 64 | 128 (≈ 70 µg/mL) | 4 (≈ 2.19 µg/mL) | 8 (≈ 4.37 µg/mL) | 128 (≈ 70 µg/mL) | > 128 | > 128 | 4 (≈ 2.19 µg/mL) | – | – | – | – | – | – | – | – | – | – | – | – | – |
| CC[C@H]1OC(=O)[C@H](C)[C@@H](O[C@H]2C[C@@](C)(OC)[C@@H](O)[C@H](C)O2)[C@H](C)[C@@H](O[C@@H]2O[C@H](C)C[C@H](N(C)C)[C@H]2O)[C@](C)(O)C[C@@H](C)C(=O)[C@H](C)[C@@H](O)[C@]1(C)O [Erythromycin] | 128 | 128 (≈ 93.9 µg/mL) | 64 (≈ 47 µg/mL) | 128 (≈ 93.9 µg/mL) | 256 (≈ 188 µg/mL) | 16 (≈ 11.7 µg/mL) | 64 (≈ 47 µg/mL) | 128 (≈ 93.9 µg/mL) | – | – | – | – | – | – | – | – | – | – | – | – | – |
| CC[C@H](C)[C@H](NC(=O)[C@H](CCCCN)NC(=O)[C@H](CCC(=O)O)NC(=O)[C@H](CCCCN)NC(=O)[C@H](CO)NC(=O)[C@H](CCCCN)NC(=O)[C@H](CCCNC(=N)N)NC(=O)[C@H](Cc1ccccc1)NC(=O)[C@H](Cc1ccccc1)NC(=O)[C@H](CC(=O)O)NC(=O)CNC(=O)[C@H](CC(C)C)NC(=O)[C@@H](N)CC(C)C)C(=O)NCC(=O)N[C@@H](CCCCN)C(=O)N[C@@H](CCC(=O)O)C(=O)N[C@@H](Cc1ccccc1)C(=O)N[C@@H](CCCCN)C(=O)N[C@@H](CCCNC(=N)N)C(=O)N[C@H](C(=O)N[C@H](C(=O)N[C@@H](CCC(N)=O)C(=O)N[C@@H](CCCNC(=N)N)C(=O)N[C@H](C(=O)N[C@@H](CCCCN)C(=O)N[C@@H](CC(=O)O)C(=O)N[C@@H](Cc1ccccc1)C(=O)N[C@@H](CC(C)C)C(=O)N[C@@H](CCCNC(=N)N)C(=O)N[C@@H](CC(N)=O)C(=O)N[C@@H](CC(C)C)C(=O)N[C@H](C(=O)N1CCC[C@H]1C(=O)N[C@@H](CCCNC(=N)N)C(=O)N[C@H](C(=O)N[C@@H](CCC(=O)O)C(=O)N[C@@H](CO)C(=O)O)[C@@H](C)O)C(C)C)[C@@H](C)CC)C(C)C)[C@@H](C)CC [LL37] | – | – | – | – | – | – | – | – | 64 | 2 | 2 | 0.75 | 0.51 | 0.51 | 2 | 1 | 1 | 0.51 | 2 | 0.63 | activity class by MIC (number in brackets), PA910 (MDR P. aeruginosa PA 910; [5]): 4 (the least active class includes peptides with MIC values larger than 32 μM); MIC against MDR isolates of PA, PA910 (MDR P. aeruginosa PA 910; [6]): 64 µM; activity class by MIC (number in brackets), PA919 (MDR P. aeruginosa PA 919; [5]): 3 (class 3 includes peptides with MIC values between 16 and 32 μM); MIC against MDR isolates of PA, PA919 (MDR P. aeruginosa PA 919; [6]): 16 µM; activity class by MIC (number in brackets), PA253 (MDR P. aeruginosa PA253; [5]): 4 (the least active class includes peptides with MIC values larger than 32 μM); MIC against MDR isolates of PA, PA253 (MDR P. aeruginosa PA253; [6]): 64 µM; activity class by MIC (number in brackets), PA01 wt (P. aeruginosa PA01-wt; [5]): 3 (class 3 includes peptides with MIC values between 16 and 32 μM); MIC against PA01 wt (P. aeruginosa PA01-wt; [6]): 16 µM (≈ 71.9 µg/mL); FIC, combination with TET [1]: 0.5; FIC, combination with TOB [1]: 2 |
| CC[C@H](C)[C@H](NC(=O)[C@H](CCCNC(=N)N)NC(=O)[C@H](Cc1c[nH]c2ccccc12)NC(=O)[C@H](CC(C)C)NC(=O)[C@@H](N)CCCNC(=N)N)C(=O)N[C@H](C(=O)N[C@H](C(=O)N[C@H](C(=O)N[C@@H](CCCNC(=N)N)C(=O)N[C@H](C(=O)N[C@@H](CCCCN)C(=O)N[C@@H](CCCNC(=N)N)C(N)=O)C(C)C)[C@@H](C)CC)C(C)C)C(C)C [Sub 7] (H-RLWRIVVIRVKR-NH2) | – | – | – | – | – | – | – | – | 32 | 0.53 | 0.56 | 0.56 | 0.75 | 0.5 | 0.75 | 2 | 0.63 | 0.51 | 0.53 | 1 | MIC against MDR isolates of PA, PA919 (MDR P. aeruginosa PA 919; MDR PA 919, 18 h): 32 µM; MIC against MDR isolates of PA, PA253 (MDR P. aeruginosa PA253; MDR PA253, 18 h): 16 µM; MIC against PA01 wt (P. aeruginosa PA01-wt; -wt, 18 h): 16 µM (≈ 25.5 µg/mL); FIC, combination with TET [1]: 0.5; FIC, combination with TOB [1]: 2 |
